Experimental data published in patent US10875855B2 (priority 2011, dated 2020).
Where two headings read alike, the source gives them in different places.

Assays:
[1] = tested on: influenza A virus (A/PR/8/34); assay: MDCK cytopathic effect (CPE) cell protection assay, ATP detection; assay type: cell-based
[2] = tested on: influenza A virus (A/PR/8/34); assay: microbe, parasite or virus in culture; assay type: cell-based
[3] = Influenza A virus, PR/8, MDCK, 72 h, Table 1, MDCK cells, A/PR/8/34, 72 hours, 50% cell protection, mean all, class symbol, read-out: MDCK IC50
[4] = Influenza A virus, PR/8, Table 1, mean all, class symbol, read-out: bDNA EC99
[5] = Influenza A virus, PR/8, Table 1, viral RNA 50% of control wells, mean all, class symbol, read-out: bDNA EC50
[6] = Table 1, MDCK cells, A/PR/8/34, 72 hours, 50% cell protection, mean all, class symbol, read-out: MDCK IC50
[7] = Table 1, viral RNA 50% of control wells, mean all, class symbol, read-out: bDNA EC50

Compound | IC50 [1, 3] [nM] | EC99 [2, 4] [µM] | EC50 [2, 5] [nM] | also measured
COCCNS(=O)(=O)C[C@@H](Nc1nc(-c2c[nH]c3ncc(F)cc23)ncc1F)C(C)(C)C [Compound 35, (S)-2-(5-Fluoro-2-(5-fluoro-1H-pyrrolo[2,3-b]pyridin-3-yl)pyrimidin-4-ylamino)-N-(2-methoxyethyl)-3,3-dimethylbutane-1-sulfonamide] | < 300 | 0.3 to 3.3 | < 300 | –
CNS(=O)(=O)C[C@H](Nc1nc(-c2c[nH]c3ncc(F)cc23)ncc1F)C(C)(C)C [Compound 38, (R)-2-((5-fluoro-2-(5-fluoro-1H-pyrrolo[2,3-b]pyridin-3-yl)pyrimidin-4-yl)amino)-N,3,3-trimethylbutane-1-sulfonamide] | > 3300 | > 3.3 | > 3300 | –
CC(C)NS(=O)(=O)C[C@@H](Nc1nc(-c2c[nH]c3ncc(F)cc23)ncc1F)C(C)(C)C [Compound 39] | < 300 | 0.3 to 3.3 | < 300 | –
CC(C)(C)NS(=O)(=O)C[C@@H](Nc1nc(-c2c[nH]c3ncc(F)cc23)ncc1F)C(C)(C)C [Compound 40] | < 300 | 0.3 to 3.3 | < 300 | –
CC1([C@@H](CC(=O)O)Nc2nc(-c3c[nH]c4ncc(F)cc34)c(C#N)cc2F)CCCC1 [Compound 42, (R)-3-(5-cyano-3-fluoro-6-(5-fluoro-1H-pyrrolo[2,3-b]pyridin-3-yl)pyridin-2-ylamino)-3-(1-methylcyclopentyl)propanoic acid] | < 300 | < 0.3 | < 300 | –
CC(C)(C)[C@@H](CC(=O)O)Nc1nc(-c2c[nH]c3ncc(C(F)(F)F)cc23)ncc1F [Compound 43, (R)-3-((5-fluoro-2-(5-(trifluoromethyl)-1H-pyrrolo[2,3-b]pyridin-3-yl)pyrimidin-4-yl)amino)-4,4-dimethylpentanoic acid] | < 300 | < 0.3 | < 300 | –
CC(C)(C)[C@@H](CS(C)(=O)=O)Nc1nc(-c2c[nH]c3ncc(F)cc23)ncc1F [Compound 46, (S)—N-(3,3-dimethyl-1-(methylsulfonyl)butan-2-yl)-5-fluoro-2-(5-fluoro-1H-pyrrolo[2,3-b]pyridin-3-yl)pyrimidin-4-amine] | < 300 | > 3.3 | 300 to 3300 | –
CC(C)(C)[C@@H](CC(=O)O)Nc1ccnc(-c2c[nH]c3ncc(F)cc23)n1 [Compound 47, (R)-3-((2-(5-fluoro-1H-pyrrolo[2,3-b]pyridin-3-yl)pyrimidin-4-yl)amino)-4,4-dimethylpentanoic acid] | < 300 | 0.3 to 3.3 | < 300 | –
CC(C)(C)[C@@H](CC(=O)O)Nc1ccnc(-c2n[nH]c3ncc(F)cc23)n1 [Compound 48, (R)-3-((2-(5-fluoro-1H-pyrazolo[3,4-b]pyridin-3-yl)pyrimidin-4-yl)amino)-4,4-dimethylpentanoic acid] | < 300 | 0.3 to 3.3 | 300 to 3300 | –
CC(C)(C)[C@@H](CO)Nc1nc(-c2c[nH]c3ncc(Cl)cc23)ncc1F [Compound 49, (S)-2-((2-(5-chloro-1H-pyrrolo[2,3-b]pyridin-3-yl)-5-fluoropyrimidin-4-yl)amino)-3,3-dimethylbutan-1-ol] | < 300 | 0.3 to 3.3 | < 300 | –
CC(C)(C)C(Nc1nc(-c2c[nH]c3ncc(F)cc23)ncc1F)C1CC1C(=O)O (stereo not shown) [Compound 50, 2-(1-((5-fluoro-2-(5-fluoro-1H-pyrrolo[2,3-b]pyridin-3-yl)pyrimidin-4-yl)amino)-2,2-dimethylpropyl)cyclopropanecarboxylic acid] | < 300 | 0.3 to 3.3 | < 300 | –
CC(C)(C)N(CC(=O)O)Nc1nc(-c2c[nH]c3ncc(F)cc23)ncc1F [Compound 53, 2-(1-(tert-butyl)-2-(5-fluoro-2-(5-fluoro-1H-pyrrolo[2,3-b]pyridin-3-yl)pyrimidin-4-yl)hydrazinyl)acetic acid] | < 300 | 0.3 to 3.3 | < 300 | –
CC(C)(C)N(CC(=O)O)Nc1nc(-c2c[nH]c3ncc(C(F)(F)F)cc23)ncc1F [Compound 54, 2-(1-(tert-butyl)-2-(5-fluoro-2-(5-(trifluoromethyl)-1H-pyrrolo[2,3-b]pyridin-3-yl)pyrimidin-4-yl)hydrazinyl)acetic acid] | < 300 | 0.3 to 3.3 | < 300 | –
CC(C)(C)N(CC(=O)O)Nc1nc(-c2c[nH]c3ncc(Cl)cc23)ncc1F [Compound 56, 2-(1-(tert-butyl)-2-(2-(5-chloro-1H-pyrrolo[2,3-b]pyridin-3-yl)-5-fluoropyrimidin-4-yl)hydrazinyl)acetic acid] | < 300 | < 0.3 | < 300 | –
CC(C)(C)[C@@H](CS(=O)(=O)NCC(F)F)Nc1nc(-c2c[nH]c3ncc(F)cc23)ncc1F [Compound 57, (S)—N-(2,2-difluoroethyl)-2-(5-fluoro-2-(5-fluoro-H-pyrrolo[2,3-b]pyridin-3-yl)pyrimidin-4-ylamino)-3,3-dimethylbutane-1-sulfonamide] | < 300 | < 0.3 | < 300 | –
CC(C)(C)[C@@H](CS(=O)(=O)NCC(F)(F)F)Nc1nc(-c2c[nH]c3ncc(F)cc23)ncc1F [Compound 58, (S)-2-(5-fluoro-2-(5-fluoro-1H-pyrrolo[2,3-b]pyridin-3-yl)pyrimidin-4-ylamino)-3,3-dimethyl-N-(2,2,2-trifluoroethyl)butane-1-sulfonamide] | < 300 | < 0.3 | < 300 | –
CC(C)(C)[C@@H](/C=C/C(=O)O)Nc1nc(-c2c[nH]c3ncc(F)cc23)ncc1F [Compound 59, (R,E)-4-((5-fluoro-2-(5-fluoro-1H-pyrrolo[2,3-b]pyridin-3-yl)pyrimidin-4-yl)amino)-5,5-dimethylhex-2-enoic acid] | < 300 | 0.3 to 3.3 | < 300 | –
CC(C)(C)[C@@H](CS(=O)(=O)CC(=O)O)Nc1nc(-c2c[nH]c3ncc(F)cc23)ncc1F [Compound 60, (S)-2-(2-(5-fluoro-2-(5-fluoro-1H-pyrrolo[2,3-b]pyridin-3-yl)pyrimidin-4-ylamino)-3,3-dimethylbutylsulfonyl)ethanoic acid] | < 300 | > 3.3 | 300 to 3300 | –
CC(C)(C)[C@@H](CS(=O)(=O)CC(=O)O)Nc1nc(-c2c[nH]c3ncc(Cl)cc23)ncc1F [Compound 61, (S)-2-(2-(2-(5-chloro-1H-pyrrolo[2,3-b]pyridin-3-yl)-5-fluoropyrimidin-4-ylamino)-3,3-dimethylbutylsulfonyl)ethanoic acid] | < 300 | 0.3 to 3.3 | < 300 | –
CC1(C(CC(=O)O)Nc2nc(-c3c[nH]c4ncc(F)cc34)ncc2F)CCC1 (stereo not shown) [Compound 63] | < 300 | < 0.3 | < 300 | –
CC(C)(C)[C@@H](CC(O)C(F)(F)F)Nc1nc(-c2c[nH]c3ncc(F)cc23)ncc1F (stereo partly drawn) [Compound 66, (4R)-1,1,1-trifluoro-4-((5-fluoro-2-(5-fluoro-1H-pyrrolo[2,3-b]pyridin-3-yl)pyrimidin-4-yl)amino)-5,5-dimethylhexan-2-ol] | < 300 | 0.3 to 3.3 | < 300 | –
CC(C)(C)[C@@H](CC(O)C(F)(F)F)Nc1nc(-c2c[nH]c3ncc(F)cc23)ncc1F (stereo partly drawn) [Compound 67, (4R)-1,1,1-trifluoro-4-((5-fluoro-2-(5-fluoro-1H-pyrrolo[2,3-b]pyridin-3-yl)pyrimidin-4-yl)amino)-5,5-dimethylhexan-2-ol] | – | – | – | IC50 [1, 6]: < 300 nM; EC50 [2, 7]: < 300 nM
CC(C)(C)[C@@H](Cn1cc(CO)nn1)Nc1nc(-c2c[nH]c3ncc(F)cc23)ncc1F [Compound 68, (S)-(1-(2-((5-fluoro-2-(5-fluoro-1H-pyrrolo[2,3-b]pyridin-3-yl)pyrimidin-4-yl)amino)-3,3-dimethylbutyl)-1H-1,2,3-triazol-4-yl)methanol] | 300 to 3300 | 0.3 to 3.3 | < 300 | –
CC(C)(C)[C@@H](CCP(=O)(O)O)Nc1nc(-c2c[nH]c3ncc(F)cc23)ncc1F [Compound 69, (R)-(3-((5-fluoro-2-(5-fluoro-1H-pyrrolo[2,3-b]pyridin-3-yl)pyrimidin-4-yl)amino)-4,4-dimethylpentyl)phosphonic acid] | 300 to 3300 | > 3.3 | 300 to 3300 | IC50 ([1]; Influenza A virus, PR/8, MDCK, exemplary data, MDCK cell protection, read-out: IC50): 2310 nM; EC50 ([2]; Influenza A virus, PR/8, exemplary data, bDNA, read-out: EC50): 800 nM; EC99 ([2]; exemplary data, bDNA): 8.4 µM
CC(C)(C)[C@@H](CC(O)CO)Nc1nc(-c2c[nH]c3ncc(F)cc23)ncc1F (stereo partly drawn) [Compound 70, (4R)-4-((5-fluoro-2-(5-fluoro-1H-pyrrolo[2,3-b]pyridin-3-yl)pyrimidin-4-yl)amino)-5,5-dimethylhexane-1,2-diol] | < 300 | 0.3 to 3.3 | < 300 | –
CC(C)(C)[C@@H](CC(O)CO)Nc1nc(-c2c[nH]c3ncc(F)cc23)ncc1F (stereo partly drawn) [Compound 71, (4R)-4-((5-fluoro-2-(5-fluoro-1H-pyrrolo[2,3-b]pyridin-3-yl)pyrimidin-4-yl)amino)-5,5-dimethylhexane-1,2-diol] | – | – | – | IC50 [1, 6]: < 300 nM; bDNA EC99 (uM) ([2]; Table 1, mean all, class symbol): A (EC99 (mean all)<0.3 μM); EC50 [2, 7]: < 300 nM
CC(O)C[C@@H](Nc1nc(-c2c[nH]c3ncc(F)cc23)ncc1F)C(C)(C)C (stereo partly drawn) [Compound 73, (4R)-4-((5-Fluoro-2-(5-fluoro-1H-pyrrolo[2,3-b]pyridin-3-yl)pyrimidin-4-yl)amino)-5,5-dimethylhexan-2-ol] | > 3300 | – | 300 to 3300 | –
CC1(C(CC(=O)O)Nc2nc(-c3c[nH]c4ncc(F)cc34)ncc2F)CC1 (stereo not shown) [Compound 74] | 300 to 3300 | 0.3 to 3.3 | 300 to 3300 | –
